Experimental findings from patent publication US20130190375A1, “CARBOXAMIDES” (BAYER CROPSCIENCE AG, priority 2005, published 2013) are described below.

For one experiment, the system named is Phakopsora pachyrhizi. Kind of experiment: Soya bean rust control test/spray application. The format is in vivo, Phakopsora pachyrhizi on soya beans (cultivar: Enrei). The conditions noted are these: active compound application rate 100 ppm; sprayed one day before inoculation; evaluated 14 days after inoculation. How it is done: 5 parts by weight of carboxamide of the formula (I), 142.4 parts by weight of acetone and 7.5 parts by weight of emulsifier (polyoxyethylene alkylphenyl ether) are mixed and adjusted with water to the desired concentration.
Soya beans (cultivar: Enrei) were cultivated in plastic containers having a diameter of 7.5 cm. In each case 3 containers, 6 ml of the test substance (preparation as described above) were sprayed onto the seedlings which had reached the 2.3 leaf stage. One day after spraying, the leaves were inoculated with an urediniospore suspension (1×10^5 urediniospores/ml) of Phakopsora pachyrhizi. 14 days after the inoculation, the degree of infection for each container was evaluated and the efficacy was calculated. The phytotoxicity was also monitored.
`Cn1cc(C(=O)Nc2ccccc2CCC(C)(C)C)c(C(F)F)n1` [(35), 3-(difluoromethyl)-N-[2-(3,3-dimethylbutyl)phenyl]-1-methyl-1H-pyrazole-4-carboxamide] had an Efficacy in % of 100%.
Regarding `Cc1nc(C(F)F)c(C(=O)Nc2ccsc2CC[Si](C)(C)C)s1` [(39), 4-(difluoromethyl)-2-methyl-N-{2-[2-(trimethylsilyl)ethyl]-3-thienyl}-1,3-thiazole-5-carboxamide], the Efficacy in % worked out at 80%.
Compound `Cn1cc(C(=O)Nc2ccccc2-c2ccc(Cl)cc2)c(I)n1` [(33), N-(4′-chlorobiphenyl-2-yl)-3-iodo-1-methyl-1H-pyrazole-4-carboxamide] displayed an Efficacy in % of 50%.
The compound `Cn1cc(C(=O)Nc2ccc(F)cc2-c2ccc(Cl)c(Cl)c2)c(C(F)F)n1` [(21), N-(3′,4′-dichloro-5-fluoro-1,1′-biphenyl-2-yl)-3-(difluoromethyl)-1-methyl-1H-pyrazole-4-carboxamide] had an Efficacy in % of 50%.
On to “3-(difluoromethyl)-N-[2-(1,3-dimethylbutyl)-4-fluorophenyl]-1-methyl-1H-pyrazole-4-carboxamide [(38)]”, for which the Efficacy in % worked out at 95%.
As to `CC(C)CC(C)c1ccccc1NC(=O)c1c(C(F)(F)F)nn(C)c1F` (stereo not shown) [(5), 3-(trifluoromethyl)-N-[2-(1,3-dimethylbutyl)phenyl]-5-fluoro-1-methyl-1H-pyrazole-4-carboxamide], the Efficacy in % was determined as 80%.
For the compound “N-[3′-fluoro-4′-(trifluoromethyl)biphenyl-2-yl]-3-iodo-1-methyl-1H-pyrazole-4-carboxamide [(37)]”, the Efficacy in % is 50%.
In turn, `Cc1nn(C)c(F)c1C(=O)Nc1ccccc1C(C)CC(C)C` (stereo not shown) [(2), N-[2-(1,3-dimethylbutyl)phenyl]-5-fluoro-1,3-dimethyl-1H-pyrazole-4-carboxamide] returned an Efficacy in % of 100%.
Consider `Cc1nn(C)c(F)c1C(=O)Nc1ccccc1CCC(C)(C)C` [(36), N-[2-(3,3-dimethylbutyl)phenyl]-5-fluoro-1,3-dimethyl-1H-pyrazole-4-carboxamide], for which the Efficacy in % turned out to be 100%.

The experiment is the same for the next values; noted with them: active compound application rate 250 ppm; sprayed one day before inoculation; evaluated 14 days after inoculation.
`Cn1cc(C(=O)Nc2ccc(F)cc2-c2ccc(Cl)c(Cl)c2)c(C(F)F)n1` [(21), N-(3′,4′-dichloro-5-fluoro-1,1′-biphenyl-2-yl)-3-(difluoromethyl)-1-methyl-1H-pyrazole-4-carboxamide] showed an Efficacy in % of 90%.
